Structures can show the parent of a compound that is named as a salt. Where two headings read alike, the source gives them in different places.
Experiments:
[1] = system: phenyl-para-quinone induced writhing; experiment: phenyl-para-quinone writhing assay in mice (analgesia); type: in vivo; details: for ED50: Mus musculus, read-out: Analgesic Activity ED50 (dose at which 50% of the phenyl-para-quinone induced writhing is inhibited)
[2] = system: apomorphine-induced climbing; experiment: climbing mice assay (block of apomorphine-induced climbing), antipsychotic activity; type: in vivo, mice (CK-1 male); details: Mus musculus, ip; for ED50: read-out: Antipsychotic Activity ED50 value (estimated dose for 50% decrease in climbing scores)
[3] = system: spontaneous hypertensive rat; experiment: antihypertensive activity in the spontaneous hypertensive rat, indirect tail cuff method; type: in vivo; details: 50 mg/kg of body wt, oral, 3 days, measured on third day
Description: According to this procedure, the test compound is administered orally to a group of 5 rats for 3 days in relation to a control group of the same number. The decrease in blood pressure is measured on the third day of administration.

[4] = mice, 10 mg/kg of body wt, intraperitoneal, 30 minutes prior to apomorphine 1.5 mg/kg s.c., read-out: Antipsychotic Activity (% decrease in climbing score)
[5] = mice, at 20 mg/kg, subcutaneous
[6] = mice, intraperitoneal, 30 minutes prior to apomorphine 1.5 mg/kg s.c., linear regression

Fc1ccc2c(CCCN3CCCCCC3)noc2c1.O=C(O)C(=O)O [1-[3-(6-Fluoro-1,2-benzisoxazol-3-yl)propyl]-2,3,4,5,6,7-hexahydroazepine oxalate]
ED50 ([1]; sc, mice, subcutaneous): 1.3 mg/kg | inhibition in vivo at 10 mg/kg [2, 4]: 27%

CC(O)C1(c2ccccc2)CCN(CCCc2noc3cc(F)ccc23)CC1 (centres unmarked) [1-[3-(6-Fluoro-1,2-benzisoxazol-3-yl)propyl]-4-(1-hydroxyethyl)-4-phenylpiperidine hydrochloride]
inhibition in vivo at 10 mg/kg ([2]; read-out: Antipsychotic Activity (% decrease in climbing score)): 41%

Cl.Fc1ccc2c(CCCN3CCC(Oc4ccc(Cl)c(Cl)c4)CC3)noc2c1 [1-[3-(6-Fluoro-1,2-benzisoxazol-3-yl)propyl]-4-(3,4-dichlorophenoxy)piperidine hydrochloride]
percent decrease in writhing at a given dose [1, 5]: 49%

Cl.Fc1ccc2c(CCCN3CCC(CCCc4ccccc4)CC3)noc2c1 [1-[3-(6-Fluoro-1,2-benzisoxazol-3-yl)propyl]-4-(3-phenylpropyl)piperidine hydrochloride]
Blood Pressure Decrease (decrease in mean arterial blood pressure) [3]: 40 mm/mercury | inhibition in vivo at 10 mg/kg [2, 4]: 25%

Cl.O=C(c1ccc(F)cc1)C1CCN(CCCc2noc3cc(F)ccc23)CC1 [1-[3-(6-Fluoro-1,2-benzisoxazol-3-yl)propyl]-4-(4-fluorobenzoyl)piperidine hydrochloride]
ED50 ([1]; sc, mice, subcutaneous): 0.8 mg/kg | inhibition in vivo at 3 mg/kg ([2]; mice, 3 mg/kg of body wt, intraperitoneal, 30 minutes prior to apomorphine 1.5 mg/kg s.c., read-out: Antipsychotic Activity (% decrease in climbing score)): 91%

Cl.Fc1ccc2c(CCCN3CCC(Oc4ccc(C(F)(F)F)cc4)CC3)noc2c1 [1-[3-(6-Fluoro-1,2-benzisoxazol-3-yl)propyl]-4-(4-trifluoromethylphenoxy)piperidine hydrochloride]
Blood Pressure Decrease (decrease in mean arterial blood pressure) [3]: 35 mm/mercury

OC1CCN(CCCc2noc3cc(F)ccc23)CC1 [1-[3-(6-Fluoro-1,2-benzisoxazol-3-yl)propyl]-4-hydroxypiperidine]
percent decrease in writhing at a given dose [1, 5]: 43% | ED50 [2, 6]: 10.4 mg/kg

Cl.Fc1ccc2c(CCCN3CCC(c4ccccc4)CC3)noc2c1 [1-[3-(6-Fluoro-1,2-benzisoxazol-3-yl)propyl]-4-phenylpiperidine hydrochloride]
ED50 ([1]; sc, mice, subcutaneous): 1 mg/kg | inhibition in vivo at 10 mg/kg [2, 4]: 35%

Cl.Fc1ccc2c(CCCN3CCC(Sc4ccccc4)CC3)noc2c1 [1-[3-(6-Fluoro-1,2-benzisoxazol-3-yl)propyl]-4-phenylthiopiperidine hydrochloride]
ED50 ([1]; sc, mice, subcutaneous): 4.4 mg/kg | inhibition in vivo at 10 mg/kg [2, 4]: 27%

Fc1ccc2c(CCCN3CCOCC3)noc2c1 [1-[3-(6-Fluoro-1,2-benzisoxazol-3-yl)propyl]morpholine oxalate]
ED50 ([1]; sc, mice, subcutaneous): 2.2 mg/kg

Cl.Fc1ccc2c(CCCN3CCCCC3)noc2c1 [1-[3-(6-Fluoro-1,2-benzisoxazol-3-yl)propyl]piperidine hydrochloride]
Blood Pressure Decrease (decrease in mean arterial blood pressure) [3]: 30 mm/mercury | ED50 ([1]; sc, mice, subcutaneous): 0.6 mg/kg

Fc1ccc2c(CCCN3CCCC3)noc2c1.O=C(O)C(=O)O [1-[3-(6-Fluoro-1,2-benzisoxazol-3-yl)propyl]pyrrolidine oxalate]
ED50 ([1]; sc, mice, subcutaneous): 1.2 mg/kg

Fc1ccc2c(CCCN3CCc4ccccc4C3)noc2c1 [2-[3-(6-Fluoro-1,2-benzisoxazol-3-yl)propyl]-1,2,3,4-tetrahydroisoquinolinehydrochloride]
percent decrease in writhing at a given dose [1, 5]: 69%

Fc1ccc2c(CCCN3CCC(Oc4ccc(Cl)cc4)CC3)noc2c1 [4-(4-Chlorophenoxy)-1-[3-(6-fluoro-1,2-benzisoxazol-3-yl)propyl]-piperidinehydrochloride]
Blood Pressure Decrease (decrease in mean arterial blood pressure) [3]: 39 mm/mercury

CC(=O)C1(c2ccccc2)CCN(CCCc2noc3cc(F)ccc23)CC1.Cl [4-Acetyl-1-[3-(6-fluoro-1,2-benzisoxazol-3-yl)propyl]-4-phenylpiperidine hydrochloride]
percent decrease in writhing at a given dose ([1]; mouse, in vivo, sc, 20 mg/kg): 46%

O=C(NC1CCN(CCCc2noc3cc(F)ccc23)CC1)c1ccccc1 [4-Benzamido-1-[3-(6-fluoro-1,2-benzisoxazol-3-yl)propyl]-piperidine]
Blood Pressure Decrease (decrease in mean arterial blood pressure) [3]: 44 mm/mercury | ED50 ([1]; sc, mice, subcutaneous): 0.6 mg/kg | inhibition in vivo at 10 mg/kg [2, 4]: 49%

Cl.Fc1ccc2c(CCCN3CCC(Cc4ccccc4)CC3)noc2c1 [4-Benzyl-1-[3-(6-fluoro-1,2-benzisoxazol-3-yl)propyl]piperidine hydrochloride]
Blood Pressure Decrease (decrease in mean arterial blood pressure) [3]: 71 mm/mercury | inhibition in vivo at 10 mg/kg [2, 4]: 29%

CC1CCN(CCCc2noc3cc(F)ccc23)CC1.Cl [4-Methyl-1-[3-(6-fluoro-1,2-benzisoxazol-3-yl)propyl]piperidine hydrochloride]
Blood Pressure Decrease (decrease in mean arterial blood pressure) [3]: 59 mm/mercury | ED50 [2, 6]: 7.6 mg/kg

Fc1ccc2c(CCCNN3CCCCC3)noc2c1 [6-Fluoro-3-{3-[N-(1-piperidino)aminopropyl}-1,2-benzisoxazole oxalate]
ED50 ([1]; sc, mice, subcutaneous): 5 mg/kg | inhibition in vivo at 10 mg/kg [2, 4]: 36%

Cl.Fc1ccc2c(CCCN3CCC4(CC3)OCCO4)noc2c1 [8-[3-(6-Fluoro-1,2-benzisoxazol-3-yl)propyl]-1,4-dioxa-8-azaspiro[4,5]decane hydrochloride]
ED50 ([1]; sc, mice, subcutaneous): 1.4 mg/kg | ED50 [2, 6]: 6.4 mg/kg

N=C(N)NCCN1CCCCCCC1 [guanethidine, reference compound]
Blood Pressure Decrease (decrease in mean arterial blood pressure) [3]: 20 mm/mercury

O=C(CCCN1CCC(O)(c2ccc(Cl)cc2)CC1)c1ccc(F)cc1 [haloperidol, reference compound]
ED50 [2]: 0.11 mg/kg

CC(C)=CCN1CCC2(C)c3cc(O)ccc3CC1C2C (centres unmarked) [pentazocine, reference compound]
ED50 ([1]; sc): 1.3 mg/kg

CCC(=O)O[C@](Cc1ccccc1)(c1ccccc1)[C@H](C)CN(C)C [propoxyphene, reference compound]
ED50 ([1]; sc): 3.9 mg/kg

CSc1ccc2c(c1)N(CCC1CCCCN1C)c1ccccc1S2 (centres unmarked) [thioridazine, reference compound]
ED50 [2, 6]: 3.5 mg/kg
